Measured values as given in patent US11214540B2, “Compositions for treating neurodegenerative diseases” (COGNITION THERAPEUTICS, INC., priority 2017, dated 2022).
Where two headings read alike, the source gives them in different places.

Tests used:
[1] = log P; assay type: physicochemical
Excerpt: The term “log P” refers to the partition coefficient of a compound. The partition coefficient is the ratio of concentrations of un-ionized compound in each of two solution phases, for example, octanol and water. To measure the partition coefficient of ionizable solute compounds, the pH of the aqueous phase is adjusted such that the predominant form of the compound is un-ionized. The logarithm of the ratio of concentrations of the un-ionized solute compound in the solvents is called log P. The log P is a measure of lipophilicity. For example, log Poct/wat=log([solute]octanol/[solute]un-ionized,water).
Combined Results for particular compounds described herein, with respect to log P, membrane trafficking (uM), sigma-2 receptor affinity, sigma-1 receptor affinity microsomal stability in mouse liver microsomes (MLM) (t1/2, min), t1/2 normalized to CT)10914 and in vitro toxicity potassium channel hERG (IC50, nM) are provided in Table 1: […]

[2] = tested on: Abeta oligomer-induced membrane trafficking deficits in primary hippocampal neurons; test: Membrane Trafficking/Exocytosis (MTT) assay, Abeta oligomer effect on neurons; assay type: cell-based, rat; conditions: membrane trafficking, read-out: EC50 Abeta;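 also: compound potency for inhibiting the Abeta oligomer effect on exocytosis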
Protocol: Compounds according to any embodiment described herein, were tested for their ability to inhibit an amyloid beta effect on the cells. The compounds generally were able to inhibit the amyloid beta effect as measured by a membrane trafficking/exocytosis assay (MTT assay). The rationale for this assay was as follows:
The present exocytosis assay was adapted for use with mature primary neuronal cultures grown for 3 weeks in vitro. See WO 2011/106785, which is incorporated herein by reference in its entirety. Abeta oligomers cause a dose-dependent decrease in the amount of intracellular vesicles (puncta) filled with reduced purple formazan as measured via image processing using a Cellomics VTI automated microscopy system. […] Increasing the amount of Abeta oligomers eventually results in overt toxicity. Thus, the concentration of neuroactive Abeta oligomers used in the assay is much lower than that causing cell death. […] When configured in this manner, the assay is able to detect compounds that inhibit nonlethal effects of Abeta oligomer whether these compounds act via disruption of oligomers, inhibition of oligomer binding to neurons, or counteraction of signal transduction mechanisms of action initiated by oligomer binding.
Primary hippocampal neurons from E18 Sprague-Dawley rat embryos were plated at optimized concentrations in 384 well plates in NB media (Invitrogen). Neurons were maintained in cultures for 3 weeks, with twice weekly feeding of NB media with N2 supplement (Invitrogen).
A test compound was added to cells at concentrations ranging from 100 uM to 0.001 nM followed by addition of vehicle or Abeta oligomer preparations (3 μM total Abeta protein concentration), and incubated for 1 to 24 hr at 37° C. in 5% CO2. MTT reagent (3-(4,5-dimethylthizaol-2yl)-2,5diphenyl tetrazolium bromide) (Roche Molecular Biochemicals) was reconstituted in phosphate buffered saline to 5 mg/mL. 10 μL of MTT labeling reagent is added to each well and incubated at 37° C. for 1 h, then imaged. Exocytosis was assessed by automated microscopy and image processing to quantify the amount of endocytosed and exocytosed formazan.
Each assay plate was formatted so that compounds are tested with and without Abeta oligomer on each plate. This design eliminates toxic or metabolically active compounds early on in the screening cascade (at the level of the primary screen). Reduced formazan was first visible in intracellular vesicles. Eventual formazan exocytosis was accelerated via Abeta oligomers.
Human amyloid peptide 1-42 was obtained from a number of commercial vendors such as California Peptide, with lot-choice contingent upon quality control analysis. Quality controls of oligomer preparations consist of Westerns to determine oligomer size ranges and relative concentrations, and the MTT assay to confirm exocytosis acceleration without toxicity. Toxicity was monitored in each image-based assay via quantification of nuclear morphology visualized with the DNA binding blue dye DAPI (Invitrogen). Nuclei that are fragmented are considered to be in late stage apoptosis (Majno and Joris '95) and the test would be rejected. Peptide lots producing unusual peptide size ranges or significant toxicity at a standard 1.5 μM concentration on neurons would also be rejected.
Data handling and analysis were accomplished by Cellomics VTI image analysis software and STORE automated database software. Because of the low dynamic range and neuronal well-to-well variability after three weeks in culture, statistical comparisons are made via pairwise Tukey-Kramer analysis to determine the significance of the separation between compound+Abeta oligomers from Abeta alone, and between compound alone from vehicle. The ability of mature primary neurons to more closely approximate the electrophysiologically mediated signal transduction network of the adult brain justifies this screening strategy. […]

[3] = target: potassium channel hERG (Homo sapiens (Human), UniProt Q12809); test: In vitro testing for hERG inhibition; assay type: biochemical; conditions: in vitro toxicity potassium channel hERG
Chain of potassium channel hERG (Q12809 whole entry): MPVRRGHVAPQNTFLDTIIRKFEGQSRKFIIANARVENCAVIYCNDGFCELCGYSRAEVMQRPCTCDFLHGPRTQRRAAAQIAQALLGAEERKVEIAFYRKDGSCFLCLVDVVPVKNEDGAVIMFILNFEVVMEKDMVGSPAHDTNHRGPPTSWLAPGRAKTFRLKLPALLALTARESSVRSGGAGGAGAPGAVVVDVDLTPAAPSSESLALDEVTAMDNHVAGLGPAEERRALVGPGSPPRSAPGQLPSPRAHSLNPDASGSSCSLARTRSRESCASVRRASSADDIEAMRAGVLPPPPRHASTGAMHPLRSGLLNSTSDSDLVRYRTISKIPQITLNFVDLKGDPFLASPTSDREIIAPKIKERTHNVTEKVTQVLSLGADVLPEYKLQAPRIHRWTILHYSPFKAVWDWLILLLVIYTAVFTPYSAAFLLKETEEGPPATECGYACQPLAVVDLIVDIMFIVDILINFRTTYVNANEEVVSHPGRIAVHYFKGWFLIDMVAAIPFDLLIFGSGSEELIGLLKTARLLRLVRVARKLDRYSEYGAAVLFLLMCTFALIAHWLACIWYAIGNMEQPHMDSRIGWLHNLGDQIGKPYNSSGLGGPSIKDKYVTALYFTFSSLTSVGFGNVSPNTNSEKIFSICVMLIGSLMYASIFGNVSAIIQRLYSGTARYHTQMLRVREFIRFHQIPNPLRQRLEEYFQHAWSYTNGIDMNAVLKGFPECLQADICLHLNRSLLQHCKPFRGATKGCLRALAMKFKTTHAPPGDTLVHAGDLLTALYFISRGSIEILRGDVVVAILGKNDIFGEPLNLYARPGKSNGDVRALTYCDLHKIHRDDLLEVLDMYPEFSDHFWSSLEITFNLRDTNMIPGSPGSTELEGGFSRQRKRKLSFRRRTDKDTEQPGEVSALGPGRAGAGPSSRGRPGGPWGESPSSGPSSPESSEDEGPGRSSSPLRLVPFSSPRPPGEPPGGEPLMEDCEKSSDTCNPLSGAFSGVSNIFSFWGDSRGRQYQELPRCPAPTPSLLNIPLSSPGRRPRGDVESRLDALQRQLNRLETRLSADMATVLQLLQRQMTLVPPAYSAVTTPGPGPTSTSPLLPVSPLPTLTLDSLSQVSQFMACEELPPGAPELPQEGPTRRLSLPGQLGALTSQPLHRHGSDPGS
Protocol: In vitro testing for hERG inhibition was performed in a standard assay (See: Haverkamp W, Breithardt G, Carnm A J, Janse M J, Rosen M R, Antzelevitch C, Escande D, Franz M, Malik M, Moss A and Shah R. (2000) Eur Heat J 21 (15); 1216-31).

log P [1] | logP ([1]; octanol/water) | Compound | EC50 [2] | IC50 [3] | EC50 ([2]; Rattus norvegicus, Hippocampal neuron)
4.9 | – | COc1ccc(C(C)(C)CC(NCC2CCOCC2)c2ccccc2)cc1 (stereo not drawn) [Compound 115] | 20 µM | – | –
6.67 | – | CC(C)=CC(CC(C)(C)c1ccc(Cl)cc1)N1CCC(C(F)(F)F)CC1 (stereo not drawn) [Compound 123] | 0.3 µM | – | –
6.45 | – | CC(C)=CC(CC(C)(C)c1ccc(F)cc1)N1CCC(Oc2ccccc2)CC1 (stereo not drawn) [Compound 124] | 0.2 µM | – | –
5.23 | – | CC(C)=CC(CC(C)(C)c1ccc(F)cc1)N1CCC(N2CCCC2)CC1 (stereo not drawn) [Compound 125] | 0.25 µM | – | –
7.19 | – | CC(C)=CC(CC(C)(C)c1ccc(C(F)(F)F)cc1)N1CCC(Oc2ccccc2)CC1 (stereo not drawn) [Compound 128] | 20 µM | – | –
5.97 | – | CC(C)=CC(CC(C)(C)c1ccc(C(F)(F)F)cc1)N1CCC(N2CCCC2)CC1 (stereo not drawn) [Compound 130] | 0.3 µM | – | –
6.24 | – | CC(C)=CC(CC(C)(C)c1ccc(F)cc1)N1CCC(C)(C)CC1 (stereo not drawn) [Compound 131] | 20 µM | – | –
6.91 | – | CC(C)=CC(CC(C)(C)c1ccc(Cl)cc1)N1CCC(Oc2ccccc2)CC1 (stereo not drawn) [Compound 132] | 20 µM | – | –
5.68 | – | CC(C)=CC(CC(C)(C)c1ccc(F)cc1)N1CCC(N2CCCCC2)CC1 (stereo not drawn) [Compound 133] | 2.2 µM | – | –
5.01 | – | CC(C)=CC(CC(C)(C)c1ccc(F)cc1)N1CCC(F)CC1 (stereo not drawn) [Compound 134] | 20 µM | – | –
5.69 | – | CC(C)=CC(CC(C)(C)c1ccc(Cl)cc1)N1CCC(N2CCCC2)CC1 (stereo not drawn) [Compound 135] | 20 µM | – | –
5.34 | – | CC(C)=CC(CC(C)(C)c1ccc(C(F)(F)F)cc1)N1CCC(N2CCOCC2)CC1 (stereo not drawn) [Compound 137] | 0.15 µM | – | –
5.07 | – | CC(C)=CC(CC(C)(C)c1ccc(Cl)cc1)N1CCC(N2CCOCC2)CC1 (stereo not drawn) [Compound 138] | 0.45 µM | – | –
6.03 | – | COCCCC1CCN(C(C=C(C)C)CC(C)(C)c2ccc(F)cc2)CC1 (stereo not drawn) [Compound 139] | 20 µM | – | –
5.78 | – | COCCCC1CCN(C(C=C(C)C)CC(C)(C)c2ccc(N3CCOCC3)cc2)CC1 (stereo not drawn) [Compound 140] | 20 µM | – | –
5.74 | – | CC(C)=CC(CC(C)(C)c1ccc(C(F)(F)F)cc1)N1CCC(F)CC1 (stereo not drawn) [Compound 141] | 1.6 µM | – | –
5.22 | – | COC1CCN(C(C=C(C)C)CC(C)(C)c2ccc(Cl)cc2)CC1 (stereo not drawn) [Compound 142] | 20 µM | – | –
5.96 | – | CC(C)=CC(CC(C)(C)c1ccc(N2CCOCC2)cc1)N1CCC(C(F)(F)F)CC1 (stereo not drawn) [Compound 143] | 20 µM | – | –
4.69 | – | CC(C)=CC(CC(C)(C)c1ccc(N2CCOCC2)cc1)N1CCC(CCO)CC1 (stereo not drawn) [Compound 144] | 20 µM | – | –
4.76 | – | COC1CCN(C(C=C(C)C)CC(C)(C)c2ccc(F)cc2)CC1 (stereo not drawn) [Compound 145] | 20 µM | – | –
6.14 | – | CC(C)=CC(CC(C)(C)c1ccc(Cl)cc1)N1CCC(N2CCCCC2)CC1 (stereo not drawn) [Compound 146] | 0.025 µM | – | –
5.59 | – | CC(C)=CC(CC(C)(C)c1ccc(N2CCOCC2)cc1)N1CCC(C2CCOCC2)CC1 (stereo not drawn) [Compound 149] | 20 µM | – | –
3.86 | – | CC(C)=CC(CC(C)(C)c1ccc(N2CCOCC2)cc1)N1CCC(O)CC1 (stereo not drawn) [Compound 150] | 20 µM | – | –
4.65 | – | CC(C)=CC(CC(C)(C)c1ccc(F)cc1)N1CCN(C(=O)C2CC2)CC1 (stereo not drawn) [Compound 151] | 20 µM | – | –

log P [1] | logP ([1]; octanol/water) | Compound | EC50 [2] | IC50 [3] | EC50 ([2]; Rattus norvegicus, Hippocampal neuron)
5.11 | – | CC(C)=CC(CC(C)(C)c1ccc(Cl)cc1)N1CCN(C(=O)C2CC2)CC1 (stereo not drawn) [Compound 152] | 0.26 µM | – | –
5.73 | – | CC(C)=CC(CC(C)(C)c1ccc(F)cc1)N1CCN(C(=O)c2ccccc2)CC1 (stereo not drawn) [Compound 153] | 0.5 µM | – | –
3.83 | – | CC(C)=CC(CC(C)(C)c1ccc(Cl)cc1)N1CCN(S(C)(=O)=O)CC1 (stereo not drawn) [Compound 156] | 0.34 µM | – | –
5.99 | – | CC(C)=CC(CC(C)(C)c1ccc(Cl)cc1)N1CCC(OC(C)C)CC1 (stereo not drawn) [Compound 158] | 2.88 µM | – | –
6.36 | – | CC(C)=CC(CC(C)(C)c1ccc(F)cc1)N1CCC(CCOC(C)C)CC1 (stereo not drawn) [Compound 159] | 10 µM | – | –
6.82 | – | CC(C)=CC(CC(C)(C)c1ccc(Cl)cc1)N1CCC(CCOC(C)C)CC1 (stereo not drawn) [Compound 160] | 15 µM | – | –
4.1 | – | CC(C)=CC(CC(C)(C)c1ccc(C(F)(F)F)cc1)N1CCN(S(C)(=O)=O)CC1 (stereo not drawn) [Compound 161] | 0.27 µM | – | –
6 | – | COCCOCCC1CCN(C(C=C(C)C)CC(C)(C)c2ccc(Cl)cc2)CC1 (stereo not drawn) [Compound 162] | 15 µM | – | –
5.54 | – | COCCOCCC1CCN(C(C=C(C)C)CC(C)(C)c2ccc(F)cc2)CC1 (stereo not drawn) [Compound 163] | 15 µM | – | –
4.87 | – | CC(C)=CC(CC(C)(C)c1ccc(OC(C)C)cc1)N1CCC(C)(O)CC1 (stereo not drawn) [Compound 180] | – | 20 µM | –
5.95 | – | CC(C)=CC(CC(C)(C)c1ccc(Cl)cc1)N1CCC(CCOC2CCOC2)CC1 (stereo not drawn) [Compound 181] | – | 1.8 µM | –
6.79 | – | COCCCC1CCN(C(C=C(C)C)CC(C)(C)c2ccc(OC(C)(C)C)cc2)CC1 (stereo not drawn) [Compound 183] | – | 2.1 µM | –
6.16 | – | CC(C)=CC(CC(C)(C)c1ccc(F)cc1)N1CCC2(CC1)OCc1ccccc12 (stereo not drawn) [Compound 185] | – | 3 µM | –
6.62 | – | CC(C)=CC(CC(C)(C)c1ccc(Cl)cc1)N1CCC2(CC1)OCc1ccccc12 (stereo not drawn) [Compound 187] | – | 1 µM | –
4 | – | CC(C)=CC(COc1ccc(Cl)cc1)N1CCC(CCO)CC1 (stereo not drawn) [Compound 188] | – | 0.4 µM | –
3.44 | – | CC1(O)CCN(CCC(C)(C)c2ccc(Cl)cc2)CC1 [Compound 192] | – | 19 µM | –
6.2 | – | CC(C)=CC(CC(C)(C)c1ccc(Cl)cc1)N1CCN(C(=O)OCC(C)C)CC1 (stereo not drawn) [Compound 198] | – | 4.8 µM | –
4.22 | – | COC1CCN(C(C)CC(C)(C)c2ccc(Cl)cc2)CC1 (stereo not drawn) [Compound 199] | – | 1.2 µM | –
6.91 | – | CCCCC1(OC(=O)NC(C)C)CCN(C(C=C(C)C)CC(C)(C)c2ccc(F)cc2)CC1 (stereo not drawn) [Compound 226] | 1.25 µM | – | –
4.67 | – | COC[C@H]1CCCN1C(C)CC(C)(C)c1ccc(Cl)cc1 (stereo partly drawn) [Compound 253] | 0.25 µM | – | –
5.01 | – | COc1cc(CCC(C)(C)N2Cc3cccc(C(=O)N4CCN(C(=O)Oc5ccccc5)CC4)c3C2)ccc1O [Compound 256] | 15 µM | – | –
6.58 | – | CC(C)=C[C@H](CC(C)(C)c1ccc(C(F)(F)F)cc1)N1CCC(C2CCOCC2)CC1 [Compound 261] | 0.73 µM | – | –
6.49 | – | COCCCC1CCN([C@@H](C=C(C)C)CC(C)(C)c2ccc(Cl)cc2)CC1 [Compound 292] | 1.6 µM | – | –
– | 6.58 | CC(C)=C[C@@H](CC(C)(C)c1ccc(C(F)(F)F)cc1)N1CCC(C2CCOCC2)CC1 [Example 262] | – | – | 1.85 µM
